Laboratory results published in patent US20170304336A1, “COMBINATION” (priority 2014, published 2017).
Several values for one entry are separate records, joined by “and”; a condition that tells them apart may be missing. Identical values can stand only once.

Legend:
[1] = test system: experimental rat hypercholesterolemia model; test: Lipid spectrum of blood in experimental rat hypercholesterolemia model; type: in vivo, male rats of Wistar line
Description: The animals used were male rats of Wistar line. […] The proposed model using rats as the experimental animals is a reproducible standard model for evaluation of hypocholesterolemic effect.
(§1) Evaluation of hypocholesterolemic efficacy and safety of pharmaceutical combination was performed in vivo in experimental rat hypercholesterolemia model.
(§2) For 90 days the studied animals received hypercholesterol diet for pathology induction. The diet included Cholesterol+Cholic acid+Overheated fats (deep fat).
For 90 days the animals received the said ration ad libitum (30 g feed per animal). Development of hypercholesterolemia in animals was evaluated based on changes in lipid spectrum parameters on Day 30 of the study.
(§3) Drugs were introduced intragastrically with an esophageal bougie daily on Day 31-90 of the study at the same time of day.
Biochemical parameters and activity of blood serum enzymes (total cholesterol (CHS), LDL-CHS, HDL-CHS, triglycerides.
1.0-1.84 ml blood samples for the study of biochemical parameters were taken from tail vein of rats. Blood samples were taken from the animals after 14-15-hour's fasting at same time of day (9.00-11.00). For biochemical parameters tests a Biochemical Analyzer A-25 (Biosystems, Spain) was used. […]

[2] = test system: experimental rat hypercholesterolemia model; test: Biochemical blood analysis (drug toxicity parameters) in rat hypercholesterolemia model; type: in vivo, male rats of Wistar line
Description: as §1, §2, §3
Biochemical parameters and activity of serum enzymes (aspartate- and alanine aminotransferase, creatine phosphokinase, urea, serum amylase, total bilirubin, direct bilirubin, indirect bilirubin, serum glucose, cations K^+, Na^+).
1.0-1.84 ml blood samples for the study of biochemical parameters were taken from tail vein of rats. Blood samples were taken from the animals after 14-15-hour's fasting at same time of day (9.00-11.00). For biochemical parameters tests a Biochemical Analyzer A-25 (Biosystems, Spain) was used.
Vol. 4. pp. 1794-1798; Pearlman F C and Lee R T Y. Clin Chem 1974, 20, 447-453; Zoppi F et al, Peracino A., Fenili D., Marcovina S. and Ramella C. Giorn It Chim Cl. […] C. et al Clin Chem. 1974. Vol. 20. pp. 470-475; and in Meiattini F., et al, Clin Chem. 1978. Vol. 24. pp. 2161-2165 (total cholesterol); Warnick G R et al. Clin Chem 2001, 47, 1579-96 (HDL/LDL); Bucolo G and David H. Clin Chem. 1973.-Vol. 19. pp. 476-482; and in Fossati P. and, Prencipe L., Clin Chem. 1982. Vol. 28. pp. 2077-2080 (triglycerides); Trinder P. Ann Clin Biochem. 1969. Vol. 6. pp. 24-27).

[3] = Mass coefficients of organs (pancreas, liver, kidneys) of rats; type: in vivo, male rats of Wistar line; details: for weight coefficient, Kidneys / weight coefficient, Liver: in %
Description: To calculate mass coefficients the pancreas, liver and kidneys of the animals were extracted. The organs were weighed and the mass coefficients were calculated by the following formula:
Mass coefficient=(organ weight/animal body weight)×100%

[4] = Dynamics of body weight of rabbits (Schemes A and B); type: in vivo, male rabbits of Californian breed; details: for Body weight: Scheme A, M ± SEM
Description: The animals used in this experiment were involved reproductive male rabbits of Californian breed. 144 rabbits were used. The weight of the animals at the beginning of the trial ranged from 2.5 to 3 kg; the animals were 8 weeks old. Before the study the laboratory animals were contained for 27 and for 37 days in the separate coops for adaptation. During this period, clinical condition of animals was controlled every day by visual inspection. The criteria of the inclusion of animals in the experiment were health and body weight.
The introduction of drugs under two schemes was used to determine the mechanism of action of the studied drugs and the impact on the different stages of atherosclerosis.
Cholesterol administered daily in an oil solution at 0.3 g/kg of animal body weight, one time, 4 hours after drug administration. Cholesterol was dissolved in hot sunflower oil and administered to the animals through noninvasive probe into the stomach. The duration of administration amounted cholesterol from 1 to 90 days in subgroup A and 1 to 120 days in subgroup B. 2. After 30 days from the initiation of administration of cholesterol vitamin D3 (cholecalciferol) in a dose of 0.256 ml/kg was added to the diet of animals to enhance aortic lipidosis. Cholecalciferol was administered intragastrically via a probe from 31 till 60 days (Scheme A and B). […] In order to gain atherosclerotic lesions in aorta and atherosclerosis induction time reduction the animals were administered a dose of epinephrineequal to 0.04 mg/kg intravenously since 31 till 60 every five days (Scheme A and B).
Animal body weight was measured in accordance with standard procedures prior to the study, then—weekly (for calculating the volume of administration of the test compound and the reference drug) and immediately before euthanasia (on days 60 and 120)—to calculate the weight gain.
The administration was carried out intragastrically in accordance with standard procedures using atraumatic probe according to two treatment regimens every day at the same time.

[5] = Mass coefficients of liver and pancreas of rabbits; type: in vivo, male rabbits of Californian breed; details: for Mass ratios, M ± SEM, Liver / Mass ratios, M ± SEM, Pancreas: dose 100 mg; for pancreatic mass coefficients relative to the control group: rosuvastatin 40 mg, AGA 100 mg
[6] = Day 30 of treatment (Day 60 of study), dose 108 mg
[7] = Day 60 of treatment (Day 90 of study), dose 108 mg
[8] = blood, Day 60 of the treatment (Day 90 of the study), RV + AGA 10 + 108 mg, RV 10 mg, AGA 108 mg
[9] = blood, Day 60 of the treatment (Day 90 of the study), SV + AGA 20 + 108 mg, SV 20 mg, AGA 108 mg
[10] = (organ weight/animal body weight)×100%, Day 90 of study, dose 108 mg
[11] = M ± m, RV + AGA 10 + 108 mg, RV 10 mg, AGA 108 mg
[12] = Day 30 of treatment (Day 60 of study), dose 20 mg
[13] = Day 30 of treatment (Day 60 of study), dose 40 mg
[14] = Day 60 of treatment (Day 90 of study), dose 20 mg
[15] = Day 60 of treatment (Day 90 of study), dose 40 mg
[16] = blood, Day 60 of the treatment (Day 90 of the study), LV + SGA 20 + 108 mg, LV 20 mg, SGA 108 mg
[17] = M ± m, LV + SGA 20 + 108 mg, LV 20 mg, SGA 108 mg

Structure (SMILES): CC1(C)[C@@H](O[C@H]2O[C@H](C(=O)O)[C@@H](O)[C@H](O)[C@H]2O[C@@H]2O[C@H](C(=O)O)[C@@H](O)[C@H](O)[C@H]2O)CC[C@]2(C)[C@H]3C(=O)C=C4[C@@H]5C[C@@](C)(C(=O)O)CC[C@]5(C)CC[C@@]4(C)[C@]3(C)CC[C@@H]12.N [AGA, Monoammonium glycyrrhizinate]
- HDL CHS [1, 6]: 0.53 ± 0.05 mmol/L
- LDL CHS [1, 6]: 4.40 ± 0.4 mmol/L
- TG [1, 6]: 1.5 ± 0.11 mmol/L
- Total CHS [1, 6]: 5.8 ± 0.5 mmol/L
- HDL CHS [1, 7]: 0.63 ± 0.05 mmol/L
- LDL CHS [1, 7]: 3.80 ± 0.3 mmol/L
- TG [1, 7]: 1.30 ± 0.12 mmol/L
- Total CHS [1, 7]: 4.5 ± 0.4 mmol/L
- ALT [2, 6]: 98 U/l
- AST [2, 6]: 130 U/l
- Amylase [2, 6]: 620 U/l
- Bilirubin direct [2, 6]: 2.1 mg/dL
- Bilirubin indirect [2, 6]: 1.8 mg/dL
- Bilirubin total [2, 6]: 4.1 mg/dL
- CPK [2, 6]: 310 U/l and 312 U/l
- Glucose [2, 6]: 112 mg/dL
- Potassium [2, 6]: 2.7 mM
- Sodium [2, 6]: 120 mmol
- Urea [2, 6]: 6.8 mmol/L
- ALT [2, 8]: 100 U/l
- AST [2, 8]: 131 U/l
- Amylase [2, 8]: 600 U/l
- Bilirubin direct [2, 8]: 2.3 mg/dL
- Bilirubin indirect [2, 8]: 1.9 mg/dL
- Bilirubin total [2, 8]: 2.9 mg/dL
- CPK [2, 8]: 310 U/l
- Glucose [2, 8]: 110 mg/dL
- Potassium [2, 8]: 3.2 mM
- Sodium [2, 8]: 122 mmol
- Urea [2, 8]: 5.5 mmol/L
- ALT [2, 9]: 100 U/l
- AST [2, 9]: 131 U/l
- Amylase [2, 9]: 600 U/l
- Bilirubin direct [2, 9]: 2.3 mg/dL
- Bilirubin indirect [2, 9]: 1.9 mg/dL
- Bilirubin total [2, 9]: 2.9 mg/dL
- CPK [2, 9]: 310 U/l
- Glucose [2, 9]: 110 mg/dL
- Potassium [2, 9]: 3.2 mM
- Sodium [2, 9]: 122 mmol
- Urea [2, 9]: 5.5 mmol/L
- weight coefficient, Pancreas [3, 10]: 0.21 ± 0.01^2
- weight coefficient, Kidneys [3, 10]: 0.81 ± 0.02
- weight coefficient, Liver [3, 10]: 4.40 ± 0.09
- weight coefficient, Pancreas [3, 11]: 0.22 ± 0.01^2
- weight coefficient, Kidneys [3, 11]: 0.81 ± 0.01
- weight coefficient, Liver [3, 11]: 4.41 ± 0.08
- Body weight ([4]; Day 0 (Before the study), dose group 100 mg (Table 37)): 2936 ± 150 g
- Body weight ([4]; Day 28 (in the setting of pathology without treatment), dose group 100 mg (Table 37)): 3369 ± 168 g
- Body weight ([4]; Day 90 (in the setting of pathology with treatment), dose 100 mg (Table 37)): 3955 ± 119 g
- body weight versus control animals ([4]; Scheme B, day 120, rosuvastatin+AGA 20+200 mg, atorvastatin+AGA 20+100 mg, AGA 100 mg): significantly lower
- Body weight, M ± SEM, Day 120 (in the setting of pathology with treatment) ([4]; Scheme B, dose 100 mg): 4150 ± 144^2 g
- Body weight, M ± SEM, Day 0 (Before the study) ([4]; Scheme B, dose 100 mg, baseline): 2809 ± 145 g
- Body weight, M ± SEM, Day 56 (in the setting of pathology without treatment) ([4]; Scheme B, dose 100 mg, before treatment): 3569 ± 164 g
- Mass ratios, M ± SEM, Liver ([5]; Scheme A): 3.3 ± 0.1
- Mass ratios, M ± SEM, Pancreas ([5]; Scheme A): 0.05 ± 0.003
- pancreatic mass coefficients relative to the control group ([5]; Scheme A): Statistically significant decrease
- Mass ratios, M ± SEM, Liver ([5]; Scheme B): 3.0 ± 0.2
- Mass ratios, M ± SEM, Pancreas ([5]; Scheme B): 0.06 ± 0.004^
- pancreatic mass coefficients relative to the control group ([5]; Scheme B): statistically significant decrease

Structure (SMILES): CC[C@H](C)C(=O)O[C@H]1C[C@@H](C)C=C2C=C[C@H](C)[C@H](CC[C@@H]3C[C@@H](O)CC(=O)O3)[C@H]21 [LV, (1S,3R,7S,8S,8aR)-8-{2-[(2R,4R)-4-hydroxy-6-oxooxan-2-yl]ethyl}-3,7-dimethyl-1,2,3,7,8,8a-hexahydronaphthalen-1-yl (2S)-2-methylbutanoate]
- HDL CHS [1, 12]: 0.64 ± 0.05 mmol/L
- LDL CHS [1, 12]: 4.25 ± 0.44 mmol/L
- TG [1, 12]: 1.31 ± 0.12 mmol/L
- Total CHS [1, 12]: 5.6 ± 0.1 mmol/L
- HDL CHS [1, 13]: 0.89 ± 0.01 mmol/L
- LDL CHS [1, 13]: 3.82 ± 0.20 mmol/L
- TG [1, 13]: 1.22 ± 0.03 mmol/L
- Total CHS [1, 13]: 4.5 ± 0.2 mmol/L
- HDL CHS [1, 14]: 0.74 ± 0.04 mmol/L
- LDL CHS [1, 14]: 3.92 ± 0.43 mmol/L
- TG [1, 14]: 1.21 ± 0.11 mmol/L
- Total CHS [1, 14]: 4.8 ± 0.2 mmol/L
- HDL CHS [1, 15]: 0.90 ± 0.01 mmol/L
- LDL CHS [1, 15]: 3.43 ± 0.23 mmol/L
- TG [1, 15]: 1.20 ± 0.03 mmol/L
- Total CHS [1, 15]: 4.1 ± 0.3 mmol/L
- ALT [2, 12]: 160 U/l
- AST [2, 12]: 183 U/l
- Amylase [2, 12]: 646 U/l
- Bilirubin direct [2, 12]: 2.1 mg/dL
- Bilirubin indirect [2, 12]: 2.1 mg/dL
- Bilirubin total [2, 12]: 4.6 mg/dL
- CPK [2, 12]: 510 U/l
- Glucose [2, 12]: 139 mg/dL
- Sodium [2, 12]: 128 mmol
- Urea [2, 12]: 7.3 mmol/L
- ALT [2, 16]: 141 U/l
- AST [2, 16]: 190 U/l
- Amylase [2, 16]: 597 U/l
- Bilirubin direct [2, 16]: 4.4 mg/dL
- Bilirubin indirect [2, 16]: 2.3 mg/dL
- Bilirubin total [2, 16]: 4.4 mg/dL
- CPK [2, 16]: 597 U/l
- Glucose [2, 16]: 148 mg/dL
- Sodium [2, 16]: 128 mmol
- Urea [2, 16]: 6.0 mmol/L
- weight coefficient, Pancreas ([3]; M ± m, LV 40 mg): 0.48 ± 0.03^1
- weight coefficient, Kidneys ([3]; M ± m, LV 40 mg): 0.77 ± 0.01
- weight coefficient, Liver ([3]; M ± m, LV 40 mg): 4.46 ± 0.15
- weight coefficient, Pancreas [3, 17]: 0.35 ± 0.04
- weight coefficient, Kidneys [3, 17]: 0.74 ± 0.02
- weight coefficient, Liver [3, 17]: 4.45 ± 0.11

Structure (SMILES): CC1(C)[C@@H](O[C@H]2O[C@H](C(=O)O)[C@@H](O)[C@H](O)[C@H]2O[C@@H]2O[C@H](C(=O)O)[C@@H](O)[C@H](O)[C@H]2O)CC[C@]2(C)[C@H]3C(=O)C=C4[C@@H]5C[C@@](C)(C(=O)O)CC[C@]5(C)CC[C@@]4(C)[C@]3(C)CC[C@@H]12.[Na+] [SGA, sodium glycyrrhizinate]
- HDL CHS [1, 6]: 0.53 ± 0.04 mmol/L
- LDL CHS [1, 6]: 4.30 ± 0.41 mmol/L
- TG [1, 6]: 1.3 ± 0.11 mmol/L
- Total CHS [1, 6]: 5.0 ± 0.4 mmol/L
- HDL CHS [1, 7]: 0.63 ± 0.03 mmol/L
- LDL CHS [1, 7]: 4.00 ± 0.3 mmol/L
- TG [1, 7]: 1.6 ± 0.11 mmol/L
- Total CHS [1, 7]: 5.0 ± 0.4 mmol/L
- ALT [2, 6]: 91 U/l
- AST [2, 6]: 125 U/l
- Amylase [2, 6]: 600 U/l
- Bilirubin direct [2, 6]: 3.0 mg/dL
- Bilirubin indirect [2, 6]: 1.2 mg/dL
- Bilirubin total [2, 6]: 4.3 mg/dL
- CPK [2, 6]: 308 U/l
- Glucose [2, 6]: 110 mg/dL
- Potassium [2, 6]: 2.5 mM
- Sodium [2, 6]: 132 mmol
- Urea [2, 6]: 6.8 mmol/L
- ALT [2, 16]: 102 U/l
- AST [2, 16]: 123 U/l
- Amylase [2, 16]: 603 U/l
- Bilirubin direct [2, 16]: 2.0 mg/dL
- Bilirubin indirect [2, 16]: 1.9 mg/dL
- Bilirubin total [2, 16]: 2.9 mg/dL
- CPK [2, 16]: 331 U/l
- Glucose [2, 16]: 120 mg/dL
- Potassium [2, 16]: 3.2 mM
- Sodium [2, 16]: 121 mmol
- Urea [2, 16]: 5.2 mmol/L
- weight coefficient, Pancreas [3, 17]: 0.22 ± 0.01^2
- weight coefficient, Kidneys [3, 17]: 0.81 ± 0.02
- weight coefficient, Liver [3, 17]: 4.42 ± 0.10
